Counter-ions that a name gives are not always drawn.
Target: T1, GPR6 receptor (Homo sapiens, UniProt P46095)
T1 construct: expressed in transfected cells
Assay: Inhibition of cAMP Activity of GPR6 In Vitro Assay (CHO-K1 cells, HTRF cAMP)
Type: cell-based
Details: compounds of Compound Table 1; inhibition of constitutive cAMP activity of GPR6 expressed in CHO-K1 cells; approximate IC50; read-out: IC50
Method in brief: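 CHO-K1 cells with doxycycline-induced (1 μg/ml, 20 h) GPR6 treated with compounds 45 min at 37 °C in Ringer's buffer (pH 7.4) with 0.5% fatty acid free BSA. Constitutive cAMP measured by Lance HTRF Ultra cAMP; IC50 from four-parameter logistic fit.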

T1 sequence (P46095 whole entry): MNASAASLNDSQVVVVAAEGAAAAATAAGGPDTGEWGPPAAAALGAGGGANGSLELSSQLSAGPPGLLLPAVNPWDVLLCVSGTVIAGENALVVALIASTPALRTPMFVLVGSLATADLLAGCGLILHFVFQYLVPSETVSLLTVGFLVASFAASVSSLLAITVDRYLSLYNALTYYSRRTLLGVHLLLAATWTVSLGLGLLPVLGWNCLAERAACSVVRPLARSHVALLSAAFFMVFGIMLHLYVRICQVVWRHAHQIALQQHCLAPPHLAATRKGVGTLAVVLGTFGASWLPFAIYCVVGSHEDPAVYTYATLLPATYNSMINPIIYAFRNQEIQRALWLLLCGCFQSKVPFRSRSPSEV

SMILES	IC50 [µM]
Clc1ccc(Cl)c(CN2CCN(c3nc4ccccc4nc3NCC3CC3)CC2)c1 [Cpd 42, N-(cyclopropylmethyl)-3-(4-(2,5-dichlorobenzyl)piperazin-1-yl)quinoxalin-2-amine, 2,2,2-trifluoroacetic acid salt]	3.16
Clc1ccc(Cl)c(CN2CCN(c3nc4ccc(Br)cc4nc3NC3CC3)CC2)c1 [Cpd 45, 7-bromo-N-cyclopropyl-3-(4-(2,5-dichlorobenzyl)piperazin-1-yl)quinoxalin-2-amine, 2,2,2-trifluoroacetic acid salt]	2.34
Clc1ccc(Cl)c(CN2CCN(c3nc4cc(Br)ccc4nc3NC3CC3)CC2)c1 [Cpd 46, 6-bromo-N-cyclopropyl-3-(4-(2,5-dichlorobenzyl)piperazin-1-yl)quinoxalin-2-amine, 2,2,2-trifluoroacetic acid salt]	4.82
N#Cc1ccc(Nc2nc3ccccc3nc2N2CCN(Cc3cc(Cl)ccc3Cl)CC2)cc1 [Cpd 58, 4-((3-(4-(2,5-dichlorobenzyl)piperazin-1-yl)quinoxalin-2-yl)amino)benzonitrile]	5.53
Clc1ccc(Cl)c(CN2CCN(c3nc4ncccc4nc3NC3CC3)CC2)c1 [Cpd 63, N-cyclopropyl-3-(4-(2,5-dichlorobenzyl)piperazin-1-yl)pyrido[2,3-b]pyrazin-2-amine]	1.13
COCCCNc1nc2ccccc2nc1N1CCN(Cc2cc(Cl)ccc2Cl)CC1 [Cpd 66, 3-(4-(2,5-dichlorobenzyl)piperazin-1-yl)-N-(3-methoxypropyl)quinoxalin-2-amine]	1.94
CS(=O)(=O)c1ccc(C(=O)N2CCN(c3nc4ccccc4nc3NC3CC3)CC2)c(Cl)c1 [Cpd 67, (2-chloro-4-(methylsulfonyl)phenyl)(4-(3-(cyclopropylamino)quinoxalin-2-yl)piperazin-1-yl)methanone]	1.03
N#Cc1ccc(C(=O)N2CCN(c3nc4ccccc4nc3NC3CC3)CC2)cc1 [Cpd 75, 4-(4-(3-(cyclopropylamino)quinoxalin-2-yl)piperazine-1-carbonyl)benzonitrile, 2,2,2-trifluoroacetic acid salt]	21.8
Fc1ccc(F)c(CN2CCN(c3nc4ccccc4nc3NC3CC3)CC2)c1 [Cpd 81, N-cyclopropyl-3-(4-(2,5-difluorobenzyl)piperazin-1-yl)quinoxalin-2-amine, 2,2,2-trifluoroacetic acid salt]	4.58
COc1ccc(Br)c(C(=O)N2CCN(c3nc4ccccc4nc3NC3CC3)CC2)c1 [Cpd 85, (2-bromo-5-methoxyphenyl)(4-(3-(cyclopropylamino)quinoxalin-2-yl)piperazin-1-yl)methanone, 2,2,2-trifluoroacetic acid salt]	7.55
O=C(c1ccc(F)c(Br)c1)N1CCN(c2nc3ccccc3nc2NC2CC2)CC1 [Cpd 89, (3-bromo-4-fluorophenyl)(4-(3-(cyclopropylamino)quinoxalin-2-yl)piperazin-1-yl)methanone, 2,2,2-trifluoroacetic acid salt]	4.78
N#Cc1cccc(CN2CCN(c3nc4ccccc4nc3NC3CC3)CC2)c1 [Cpd 95, 3-((4-(3-(cyclopropylamino)quinoxalin-2-yl)piperazin-1-yl)methyl)benzonitrile, 2,2,2-trifluoroacetic acid salt]	22.2
Cc1cc(C(=O)N2CCN(c3nc4ccccc4nc3NC3CC3)CC2)no1 [Cpd 98, (4-(3-(cyclopropylamino)quinoxalin-2-yl)piperazin-1-yl)(5-methylisoxazol-3-yl)methanone]	3.21
Clc1cc(CN2CCN(c3nc4ccccc4nc3NC3CC3)CC2)c(Cl)s1 [Cpd 99, N-cyclopropyl-3-(4-((2,5-dichlorothiophen-3-yl)methyl)piperazin-1-yl)quinoxalin-2-amine, 2,2,2-trifluoroacetic acid salt]	6.03
c1ccc2nc(N3CCN(Cc4coc5ccccc45)CC3)c(NC3CC3)nc2c1 [Cpd 100, 3-(4-(benzofuran-3-ylmethyl)piperazin-1-yl)-N-cyclopropylquinoxalin-2-amine]	3.96
Cc1cc(C)c2nc(N3CCN(Cc4cc(Cl)ccc4Cl)CC3)c(NC3CC3)nc2c1 [Cpd 103, N-cyclopropyl-3-(4-(2,5-dichlorobenzyl)piperazin-1-yl)-5,7-dimethylquinoxalin-2-amine]	5.31
O=S(=O)(c1ccccc1)N1CCN(c2nc3ccccc3nc2NC2CC2)CC1 [Cpd 105, N-cyclopropyl-3-(4-(phenylsulfonyl)piperazin-1-yl)quinoxalin-2-amine]	5.66
CC(C)CNc1nc2ccccc2nc1N1CCN(Cc2cc(Cl)ccc2Cl)CC1 [Cpd 110, 3-(4-(2,5-dichlorobenzyl)piperazin-1-yl)-N-isobutylquinoxalin-2-amine, 2,2,2-trifluoroacetic acid salt]	6.03
CC(C)Nc1nc2ccccc2nc1N1CCN(Cc2cc(Cl)ccc2Cl)CC1 [Cpd 111, 3-(4-(2,5-dichlorobenzyl)piperazin-1-yl)-N-isopropylquinoxalin-2-amine, 2,2,2-trifluoroacetic acid salt]	3.31
CC(C)CCNc1nc2ccccc2nc1N1CCN(Cc2cc(Cl)ccc2Cl)CC1 [Cpd 115, 3-(4-(2,5-dichlorobenzyl)piperazin-1-yl)-N-isopentylquinoxalin-2-amine, 2,2,2-trifluoroacetic acid salt]	3.98
Cc1cc(Br)ccc1C(=O)N1CCN(c2nc3ccccc3nc2NC2CC2)CC1 [Cpd 122, (4-bromo-2-methylphenyl)(4-(3-(cyclopropylamino)quinoxalin-2-yl)piperazin-1-yl)methanone, 2,2,2-trifluoroacetic acid salt]	10.3
Clc1cccc(CN2CCN(c3nc4ccccc4nc3Nc3ncccn3)CC2)c1 [Cpd 126, 3-(4-(3-chlorobenzyl)piperazin-1-yl)-N-(pyrimidin-2-yl)quinoxalin-2-amine, 2,2,2-trifluoroacetic acid salt]	47
Clc1ccc(NC2CCN(c3nc4ccccc4nc3NC3CC3)CC2)cc1 [Cpd 413, 3-(4-((4-chlorophenyl)amino)piperidin-1-yl)-N-cyclopropylquinoxalin-2-amine, 22,2,2-trifluoroacetic acid salt]	0.019
N#Cc1ccc2nc(NC3CC3)c(N3CCC(C(F)c4cc(F)ccc4F)CC3)nc2c1 (stereo not shown) [Cpd 471]	0.075
N#Cc1ccc2nc(NC3CC3)c(N3CCC(C(F)c4ccc(F)cc4F)CC3)nc2c1 (stereo not shown) [Cpd 481]	0.024
O=C(c1ccsc1Cl)C1CCN(c2nc3cnccc3nc2NC2CC2)CC1 [Cpd 572, (2-chlorothiophen-3-yl)(1-(2-(cyclopropylamino)pyrido[3,4-b]pyrazin-3-yl)piperidin-4-yl)methanone, hydrogen chloride salt]	0.021
O=C(c1cc2nc(NC3CC3)c(N3CCC([C@H](F)c4ccc(F)cc4F)CC3)nc2cn1)N1CCC1 [Cpd 591, (S)-azetidin-1-yl(2-(cyclopropylamino)-3-(4-((2,4-difluorophenyl)fluoromethyl)piperidin-1-yl)pyrido[3,4-b]pyrazin-7-yl)methanone]	0.022
COc1ccc(OC2CCN(c3nc4c(C(=O)N(C)C)nccc4nc3NC3CC3)CC2)c(F)c1 [Cpd 604, 2-(cyclopropylamino)-3-(4-(2-fluoro-4-methoxyphenoxy)piperidin-1-yl)-N,N-dimethylpyrido[3,4-b]pyrazine-5-carboxamide]	0.054
